The test addresses Crimean-Congo hemorrhagic fever virus L protein viral ovarian tumor (vOTU) protease domain. Nature of the test: CCHFV vOTU protease inhibitor potency, dose response, biochemical, fluorescence, Pep-AMC substrate (AID 720578). The note with it: recombinant CCHFV vOTU, Pep-AMC fluorescence cleavage.

Active and inactive are the calls of the source. No rule for the calls is given here.

With `CC(=O)N(/N=C1\Sc2ccccc2C1=O)c1cccc(C)c1`, the IC50 entry was “inactive”. `CCOC(=O)c1c(C)[nH]c2c1-c1ccccc1C(=O)C2=O`: the IC50 is 0.323 µM. Under `CC1OC(CC(=O)O)CC2=C1C(=O)c1c(O)cccc1C2=O` (stereo not drawn) stands 3.82 µM. For `CCC(C)n1c(NC(=O)c2ccccc2)c(C#N)c2nc3ccccc3nc21` (stereo not drawn), the IC50 was 8.97 µM. Turning to `CNc1ccc2nc3ccccc3[n+](C)c2c1`, the IC50 entry was “inactive”.

Take `Cc1ccc(NC2=C/C(=N/S(=O)(=O)c3cccs3)c3ccccc3C2=O)cc1`: the IC50 was 0.405 µM. Under `C[n+]1c(-c2ccccc2)c2cc(N)ccc2c2ccc(N)cc21` stands 3.68 µM; under `CCCCCCCCN1C(=O)[C@@H](CC(=O)NCCCOCCCC)C[C@@]2(C(=O)OC)C1=C[C@H](C(C)C)O[C@@H]2C1CC1`, “inactive”; under `CCCCCCCCCCCCCCCC[n+]1ccccc1`, “inactive”. With `COc1cc(NC(C)CCCN)c2ncccc2c1` (stereo not drawn) the entry was “inactive”. With `O=C1Cc2ccccc2C(=O)N1Cc1ccccc1` the figure was 1.28 µM; with `O=C1Cc2ccccc2C(=O)N1`, 0.396 µM; with `O=C(O)c1cc(O)c2c(c1)[C@H]([C@H]1c3cc(C(=O)O)cc(O)c3C(=O)c3c(O[C@@H]4O[C@H](CO)[C@@H](O)[C@H](O)[C@H]4O)cccc31)c1cccc(OC3O[C@H](CO)[C@@H](O)[C@H](O)[C@H]3O)c1C2=O` (stereo partly drawn), 6.47 µM. With `CC(=O)N(C)c1ccc(N=Cc2cc3c(cc2[N+](=O)[O-])OCO3)cc1`, the IC50 result was “inactive”. With `Cc1cnc(C2OCCO2)c2cccc(N)c12`, the IC50 is 2.56 µM. With `CC(C)=CCC1=C(OCC(=O)O)C(=O)c2ccccc2C1=O` the figure was 6.79 µM. With `Cc1ccc(S(=O)(=O)/N=C2\C=C(Nc3cccc(C(=O)O)c3)C(=O)c3ccccc32)cc1`, the IC50 is 0.771 µM. With `COc1cc(Br)c(C(=O)c2nccc3cc(OC)c(OC)cc23)cc1OC` the figure was 0.27 µM.

In the case of `O=C(NCCCO)c1ccc2nc(-c3ccco3)c(-c3ccco3)nc2c1`, the IC50 was 9.45 µM. On to `O=C1C(N2CCOCC2)=C(n2nnc3ccccc32)C(=O)c2ccccc21`, for which the IC50 is 2.69 µM.

`Nc1cc2c(cc1Br)[nH]c(=O)c1ccccc12`: the IC50 is 3.2 µM. `S=C(Nc1ccc2nsnc2c1)N1CCCCCC1`: the IC50 result is “inactive”. With `O=C(c1ccco1)[C@@H]1[C@@H]2C(=O)N(c3ccc(Br)cc3)C(=O)[C@@H]2C2c3ccccc3C=CN21` (stereo partly drawn) the figure was 5.26 µM; with `Oc1c(C=Nc2cccc3nsnc23)ccc2ccccc12`, “inactive”; with `O=[N+]([O-])c1c(Nc2ccccn2)cc(Cl)c2nonc12`, “inactive”. With `O=C(COC(=O)c1ccc([N+](=O)[O-])s1)Nc1ccc(F)cc1` the figure was 7.79 µM; with `Oc1c(N=Nc2nn[nH]n2)ccc2ccccc12`, 5.11 µM. With `O=C(O)c1ccc(S(=O)(=O)/N=C2\C=C(Nc3ccccc3F)C(=O)c3ccccc32)cc1` the figure was 0.397 µM; with `N#CC1=C(S)N(c2ccccc2)C(c2ccc(-c3ccc(Cl)c(Cl)c3)o2)NC1=O` (stereo not drawn), “inactive”.

Regarding `O=S(=O)(N=C1C=CC(=NS(=O)(=O)c2ccccc2)c2ccccc21)c1ccccc1`, the IC50 entry was “inactive”. With `Cn1c2ccccc2c2cc(/C=N/NC(=O)c3cc(O)ccc3O)ccc21` the figure was 9.12 µM; with `COc1cc(CCNC2=CC(=O)c3ncccc3C2=O)ccc1O`, 5.25 µM; with `O=S(=O)(Nc1c(S(=O)(=O)c2ccccc2)c2nc3ccccc3nc2n1C1CCCCC1)c1ccccc1`, > 115 µM (inactive). With `O=C1Nc2ccc([N+](=O)[O-])cc2C1=Nc1cccc(CO)c1` the figure was 8.78 µM.

Consider `CCCCCCCCCCCCN1[C@@H](CC(=O)O)c2cc(F)ccc2S1(=O)=O`, for which the IC50 entry is “inactive”.

Consider `COc1cc(C(=O)c2nccc3cc(OC)c(OC)cc23)c([N+](=O)[O-])cc1OC`, for which the IC50 is 1.05 µM. Under `Cc1coc2c(O)cc3c(c12)OC1(N2CCCCC2)C(=O)NCCCC31` (stereo not drawn) stands “inactive”; under `COc1cccc2c1C(=O)c1c(O)c3c(c(O)c1C2=O)C[C@@](O)(C(=O)CO)C[C@@H]3O[C@H]1C[C@H](N)[C@H](O)[C@H](C)O1`, “inactive”; under `O=C(NC1=CC(=O)c2ccccc2C1=O)c1ccccc1`, 3.85 µM. Under `COc1cc2c(cc1OC)-c1c(OC)c(OC)cc3c1[C@H](C2)N(C)CC3` stands 7 µM; under `O=C(NC(=S)Nc1ccccc1N1CCCC1)c1ccccc1Br`, “inactive”; under `NS(=O)(=O)c1ccc(NC(=O)COC(=O)c2ccc([N+](=O)[O-])s2)cc1`, 8.31 µM. With `CCN(CC)CCCC(C)n1c2nc(=O)[nH]c(=O)c-2nc2cc(Cl)ccc21` (stereo not drawn) the figure was 2.5 µM; with `Cc1ccccc1NC1=C/C(=N\S(=O)(=O)c2cccs2)c2ccccc2C1=O`, 0.249 µM. On to `CCCNC1=C(N(C(C)=O)c2cccc(F)c2)C(=O)c2ccccc2C1=O`, for which the IC50 entry was “inactive”. Under `O=C(O)CSc1cc(NS(=O)(=O)c2ccc(Br)cc2)c2ccccc2c1O` stands 4.45 µM; under `CC(=O)N(C1=C(N)C(=O)c2ccccc2C1=O)c1ccccc1`, 8.38 µM; under `CC(NC1=CC(=O)c2cccnc2C1=O)C(O)c1ccccc1` (stereo not drawn), 1.94 µM. Under `COc1ccc(S(=O)(=O)/N=C2\C=C(Nc3ccc(O)cc3)C(=O)c3ccccc32)cc1` stands 0.375 µM.

For `Cc1nc2c(o1)C(=O)c1ccccc1C2=Nc1ccccc1`, the IC50 is 7.89 µM.

With `O=C(O)CSc1cc(NS(=O)(=O)c2cccc([N+](=O)[O-])c2)c2ccccc2c1O`, the IC50 is 2.44 µM.

Regarding `CCCCCCCCCCOC(=O)Cn1c(COc2ccc(Cl)cc2)[n+](C)c2ccccc21`, the IC50 result was “inactive”. Under `CCCCCCCCCCCCCCCC[n+]1cccc2ccccc21` stands “inactive”. With `COc1ccccc1Nc1cc2cc(Br)ccc2c(=O)[nH]1` the figure was 1.05 µM; with `C=CCN1C=CC(=C/C=C(/C#N)C(=O)OCC)C=C1`, “inactive”; with `COc1ccc(CNC(=O)c2c(C)oc3c2C(=O)c2ccccc2C3=O)cc1`, 8.2 µM. With `CC(C)NC1=C(Cl)C(=O)c2ccccc2C1=O` the entry was “inactive”; with `O=[N+]([O-])c1cc(O)c2ncccc2c1`, “inactive”.

As for `Cc1oc2c(c1C(=O)O)C(=O)c1ccccc1C2=O`, the IC50 is 9.12 µM. With `O=C1C(Cl)=C(NCCCO)C(=O)c2ccccc21`, the IC50 entry was “inactive”. Consider `NC1=CC(=O)C(=O)c2cccnc21`, for which the IC50 was 1.85 µM. With `CCOC(=O)N=Nc1c2ccccc2c2nc3no[nH]c3nc12` the figure was 2.35 µM. With `Cn1c(=O)c2c(-c3ccccc3)n(-c3ccc(N)cc3)cc2n(C)c1=O` the figure was 4.53 µM; with `O=C1Cc2ccccc2C(=O)N1CCc1ccccc1`, 1.14 µM; with `O=C(O)c1ccc(NC2=C(n3nnc4ccccc43)C(=O)c3ccccc3C2=O)cc1`, 4.59 µM. Turning to `CC1(C)C=C2C(=NN(c3ccccc3)C(N)=C2C#N)CO1`, the IC50 was 1.83 µM. Under `CN(C)S(=O)(=O)c1cccc(NC(=S)Nc2cccc3cnccc23)c1` stands “inactive”; under `NC1=C(Br)C(=O)c2ccccc2C1=O`, 4.48 µM.

Source of the values: PubChem BioAssay AID720578 (The Scripps Research Institute Molecular Screening Center, 2013).
